Reference: US12637471B2, “Heterocyclic compounds, compositions, methods of preparation and uses thereof” (Organon R&D Finland Ltd, priority 2021, dated 2026)

Legend:
Type in all cases: biochemical
[1] = biological target: T1, Recombinant human AKR1C3 (17β-HSD5) protein (Homo sapiens, UniProt P42330); assay: Inhibition of AKR1C3 (17β-hydroxysteroid dehydrogenase type 5) enzyme, fluorescence assay; details: inhibitor at 500 nM
T1 construct: made in house; host or cells: E. coli
T1 sequence (P42330 1-323): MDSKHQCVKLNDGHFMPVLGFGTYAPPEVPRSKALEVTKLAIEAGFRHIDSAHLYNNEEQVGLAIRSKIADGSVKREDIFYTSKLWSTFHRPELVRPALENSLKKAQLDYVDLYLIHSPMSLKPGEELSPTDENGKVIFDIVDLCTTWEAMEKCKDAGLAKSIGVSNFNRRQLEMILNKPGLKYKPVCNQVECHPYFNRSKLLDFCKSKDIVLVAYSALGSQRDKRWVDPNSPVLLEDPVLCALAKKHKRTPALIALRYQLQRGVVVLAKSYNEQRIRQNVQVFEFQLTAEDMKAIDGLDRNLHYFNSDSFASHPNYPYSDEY
Method in brief: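 Percent inhibition at 500 nM compound, derived from substrate conversion; product alcohol measured by fluorescence (ex 420, em 510 nm) against a 1 μM–10 nM standard curve. Reaction: 27 nM recombinant AKR1C3, 1 μM ketone substrate, 1 mM NADPH, phosphate/EDTA buffer pH 7.4, 1% DMSO, RT for 60–120 min.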

[2] = biological target: T2, 17β-Hydroxysteroid Dehydrogenase Type 2 Enzyme (17β-HSD2) (Homo sapiens, UniProt P37059); assay: Inhibition of the 17β-hydroxysteroid dehydrogenase type 2 enzyme, 3H-testosterone conversion; details: inhibitor at 10 μM
T2 construct: made in house; host or cells: Sf-9 insect cells (baculovirus)
T2 sequence (P37059 1-387): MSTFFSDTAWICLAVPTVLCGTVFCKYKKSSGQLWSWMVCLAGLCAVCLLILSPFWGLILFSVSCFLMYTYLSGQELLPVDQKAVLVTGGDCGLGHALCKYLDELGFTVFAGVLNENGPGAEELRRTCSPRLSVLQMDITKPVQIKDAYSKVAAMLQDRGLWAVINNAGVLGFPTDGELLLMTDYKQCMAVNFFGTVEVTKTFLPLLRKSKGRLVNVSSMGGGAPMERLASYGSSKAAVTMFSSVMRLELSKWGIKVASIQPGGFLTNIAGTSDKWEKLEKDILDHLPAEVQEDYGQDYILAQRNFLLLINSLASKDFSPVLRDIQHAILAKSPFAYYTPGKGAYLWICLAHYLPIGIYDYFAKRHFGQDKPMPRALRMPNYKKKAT
Method in brief: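 Single-point screen at 10 μM inhibitor, 1% DMSO: Sf-9-expressed human enzyme (105 nM), NAD 1 mM, ³H-labelled testosterone 56.25 nM, pH 8.5 phosphate/EDTA buffer, 30 min, room temperature. After TCA quench, substrate and product radioactivity quantified by UPLC with scintillation detection; inhibition percent from conversion.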

[3] = biological target: T3, Recombinant human aldo-keto reductase family 1 member C2 (AKR1C2) protein (Homo sapiens, UniProt P52895); assay: Inhibition of the aldo-keto reductase family 1 member C2, 3H-dihydrotestosterone conversion; details: inhibitor at 10 μM
T3 construct: made in house; host or cells: Sf-9 insect cells (baculovirus)
T3 sequence (P52895 1-323): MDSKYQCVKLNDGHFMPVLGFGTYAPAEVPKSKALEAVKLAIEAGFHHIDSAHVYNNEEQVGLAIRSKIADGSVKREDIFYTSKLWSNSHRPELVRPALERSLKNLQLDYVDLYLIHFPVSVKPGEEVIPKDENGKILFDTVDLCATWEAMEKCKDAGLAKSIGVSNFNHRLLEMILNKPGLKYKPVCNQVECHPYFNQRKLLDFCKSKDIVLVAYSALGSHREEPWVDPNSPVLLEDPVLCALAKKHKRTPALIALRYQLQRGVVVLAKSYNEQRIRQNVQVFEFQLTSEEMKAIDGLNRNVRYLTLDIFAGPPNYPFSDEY
Method in brief: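 Single-point screen at 10 μM inhibitor, 1% DMSO: [3H]DHT (6.25 nM) reduction to 3α-diol by baculovirus-made AKR1C2 (13.6 nM), pH 7.4 phosphate buffer, 1 mM NADPH, 37 °C for 45 min. Radio-UPLC quantified product versus substrate to give percent inhibition.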

inhibition at 0.5 µM [1] | inhibition at 10 µM [2] | inhibition at 10 µM [3] | SMILES
103% | 12% | 18% | N#CC(=C1CCN(C(=O)N2CCn3cncc3C2)CC1)c1ccc(F)c(F)c1 [Compound 44, 2-(3,4-difluorophenyl)-2-(1-(5,6,7,8-tetrahydroimidazo[1,5-a]pyrazine-7-carbonyl)piperidin-4-ylidene)acetonitrile]
94% | -3% | 10% | N#CC(=C1CCN(C(=O)N2CC(C#N)C2)CC1)c1ccc(F)c(F)c1 [Compound 36, 1-(4-(cyano(3,4-difluorophenyl)methylene)piperidine-1-carbonyl)azetidine-3-carbonitrile]
98% | 15% | 18% | N#CC(=C1CCN(C(=O)N2CCc3nocc3C2)CC1)c1cccc(Cl)c1 [Compound 89, 2-(3-chlorophenyl)-2-(1-(4,5,6,7-tetrahydroisoxazolo[4,3-c]pyridine-5-carbonyl)piperidin-4-ylidene)acetonitrile]
99% | 2% | 5% | N#CC(=C1CCN(C(=O)N2CCOCC2)CC1)c1ccc(F)cc1 [Compound 1, 2-(4-fluorophenyl)-2-(1-(morpholine-4-carbonyl)piperidin-4-ylidene)acetonitrile]
96% | 11% | 8% | N#CC(=C1CCN(C(=O)N2CCc3[nH]cnc3C2)CC1)c1ccc(F)cc1 [Compound 24, 2-(4-fluorophenyl)-2-(1-(4,5,6,7-tetrahydro-1H-imidazo[4,5-c]pyridine-5-carbonyl)piperidin-4-ylidene)acetonitrile]
99% | 12% | 7% | N#CC(=C1CCN(C(=O)N2CCC(O)CC2)CC1)c1cccc(Cl)c1 [Compound 80, 2-(3-chlorophenyl)-2-(1-(4-hydroxypiperidine-1-carbonyl)piperidin-4-ylidene)acetonitrile]
99% | 3% | 4% | N#CC(=C1CCN(C(=O)N2CCOCC2)CC1)c1ccc(Cl)cc1 [Compound 2, 2-(4-chlorophenyl)-2-(1-(morpholine-4-carbonyl)piperidin-4-ylidene)acetonitrile]
97% | 13% | 19% | N#CC(=C1CCN(C(=O)N2CCn3cncc3C2)CC1)c1cc(F)cc(F)c1 [Compound 52, 2-(3,5-difluorophenyl)-2-(1-(5,6,7,8-tetrahydroimidazo[1,5-a]pyrazine-7-carbonyl)piperidin-4-ylidene)acetonitrile]
96% | 12% | 8% | N#CC(=C1CCN(C(=O)N2CCc3sccc3C2)CC1)c1ccc(Cl)cn1 [Compound 66, 2-(5-chloropyridin-2-yl)-2-(1-(4,5,6,7-tetrahydrothieno[3,2-c]pyridine-5-carbonyl)piperidin-4-ylidene)acetonitrile]
92% | 21% | 19% | COCC1CCN(C(=O)N2CCC(=C(C#N)c3ccc(F)cc3F)CC2)CC1 [Compound 73, 2-(2,4-difluorophenyl)-2-(1-(4-(methoxymethyl)piperidine-1-carbonyl)piperidin-4-ylidene)acetonitrile]
99% | 8% | 4% | N#CC(=C1CCN(C(=O)N2CCn3ncnc3C2)CC1)c1ccc(C(F)(F)F)cc1 [Compound 152, 2-(1-(5,6,7,8-tetrahydro-[1,2,4]triazolo[1,5-a]pyrazine-7-carbonyl)piperidin-4-ylidene)-2-(4-(trifluoromethyl)phenyl)acetonitrile]

Second part, the molecule before the results:

SMILES | inhibition at 0.5 µM [1] | inhibition at 10 µM [2] | inhibition at 10 µM [3]
COCC1CCN(C(=O)N2CCC(=C(C#N)c3cccc(Cl)c3)CC2)CC1 [Compound 153, 2-(3-chlorophenyl)-2-(1-(4-(methoxymethyl)piperidine-1-carbonyl)piperidin-4-ylidene)acetonitrile] | 95% | 26% | 14%
N#CC(=C1CCN(C(=O)N2CCOCC2)CC1)c1ccc(C(F)(F)F)cc1 [Compound 147, 2-(1-(morpholine-4-carbonyl)piperidin-4-ylidene)-2-(4-(trifluoromethyl)phenyl)acetonitrile] | 99% | 4% | 5%
N#CC(=C1CCN(C(=O)N2CCC(O)CC2)CC1)c1ccc(OC(F)(F)F)cc1 [Compound 115, 2-(1-(4-hydroxypiperidine-1-carbonyl)piperidin-4-ylidene)-2-(4-(trifluoromethoxy)phenyl)acetonitrile] | 96% | -1% | 0%
N#CC(=C1CCN(C(=O)N2CCC(O)CC2)CC1)c1n[nH]c2ccc(F)cc12 [Compound 94, 2-(5-fluoro-1H-indazol-3-yl)-2-(1-(4-hydroxypiperidine-1-carbonyl)piperidin-4-ylidene)acetonitrile] | 97% | 8% | 7%
Cn1ncc2cccc(C(C#N)=C3CCN(C(=O)N4CCc5nocc5C4)CC3)c21 [Compound 136, 2-(1-methyl-1H-indazol-7-yl)-2-(1-(4,5,6,7-tetrahydroisoxazolo[4,3-c]pyridine-5-carbonyl)piperidin-4-ylidene)acetonitrile] | 99% | 26% | 6%
COC1CN(C(=O)N2CCC(=C(C#N)c3ccc(F)cc3)CC2)C1 [Compound 22, 2-(4-fluorophenyl)-2-(1-(3-methoxyazetidine-1-carbonyl)piperidin-4-ylidene)acetonitrile] | 88% | 7% | 9%
N#CC(=C1CCN(C(=O)N2CCC(CO)CC2)CC1)c1ccc(Cl)cn1 [Compound 65, 2-(5-chloropyridin-2-yl)-2-(1-(4-(hydroxymethyl)piperidine-1-carbonyl)piperidin-4-ylidene)acetonitrile] | 97% | 2% | 2%
N#CC(=C1CCN(C(=O)N2CC(C#N)C2)CC1)c1ccc(F)cc1F [Compound 40, 1-(4-(cyano(2,4-difluorophenyl)methylene)piperidine-1-carbonyl)azetidine-3-carbonitrile] | 95% | 5% | 14%
N#CC(=C1CCN(C(=O)N2CCC(S(N)(=O)=O)CC2)CC1)c1cccc(Cl)c1 [Compound 99, 1-(4-((3-chlorophenyl)(cyano)methylene)piperidine-1-carbonyl)piperidine-4-sulfonamide] | 96% | 18% | 16%
C[C@@H]1CCCCN1C(=O)N1CCC(=C(C#N)c2ccc(F)cc2)CC1 [Compound 110, (R)-2-(4-fluorophenyl)-2-(1-(2-methylpiperidine-1-carbonyl)piperidin-4-ylidene)acetonitrile] | 96% | 30% | 6%
N#CC(=C1CCN(C(=O)N2CCC(CO)CC2)CC1)c1ccc(F)cc1 [Compound 19, 2-(4-fluorophenyl)-2-(1-(4-(hydroxymethyl)piperidine-1-carbonyl)piperidin-4-ylidene)acetonitrile] | 99% | 19% | 12%
